Data on one compound can be found in article PMC8997995, “Amphiphilic Cell-Penetrating Peptides Containing Natural and Unnatural Amino Acids as Drug Delivery Agents” (Cells, 2022).

SMILES strings stand for the structures. Non-standard residues stand in square brackets, D forms with d. Residues, ends and D or L forms follow the SMILES beside them. Dip = N[C@H](C(=O)O)C(c1ccccc1)c1ccccc1

Data set [1] concerns HEK-293 cells. In kind it is cell-based, human. The note with it: HEK-293, 25 µM, 24 h incubation, MTS. On the procedure:
SK-OV-3, CCRF-CEM, HEK-293, MDA-MB-468, LLC-PK1, and MES-SA were used to determine the cytotoxicity of the synthesized linear and cyclic peptides. About 5000, 10,000, and 50,000 cells were seeded for SK-OV-3, HEK-293, and CCRF-CEM cells, respectively, in 0.1 mL of medium per well of 96-well plates. […]
Adhesive cells were detached with 0.05% trypsin/EDTA after 15 min. […] The cell viability was measured by utilizing Multi-Mode Microplate Reader (SpectraMax M5 model, Molecular Devices, San Jose, CA, USA) after adding 20 µL of the MTS reagent to each well and incubating for 3 additional hours. […] The percentage of cell viability was calculated using the following equation:(1) =(Average OD values of samples treated with the compound /Average OD values of no treatment samples )∗100

Data set [2] deals with MDA-MB-231 cells. The data set is described as follows: Confocal microscopy of cellular uptake. Format: cell-based, human. The note with it: MDA-MB-231, F’-GpYEEI 2 µM + peptide 10 μM, 3 h, 37 °C. On the procedure:
Coverslips were placed in a 6-well plate wells and covered with 2 mL of media. Human epithelial mammary gland/breast adenocarcinoma cells (MDA-MB-231, ATCC No. HTB-26) were used. 200,000 cells per well were seeded with DMEM media low glucose (4 mM L-glutamine, 1000 mg/L glucose, and 110 mg/L sodium pyruvate) overnight on a cover glass in 6-well plates. The cells were treated with the physical mixture of F’-GpYEEI and [DipR]5 (10 μM) or F’-[K(DipR)5] in DMEM media low glucose without FBS and incubated for 3 h at 37 °C in a humidified atmosphere of 5% CO2. Next, the media was removed, and cells were washed three times with 2 mL PBS in each well. Cells were fixed in 2 mL of 3.7% formaldehyde for 10 min and were washed 3 times in PBS (pH 7.6). 1 mL of the Texas red solution was pipetted (40 µL of Texas Red and 100 mg BSA in 10 mL of PBS) in each well to stay for 1 h at room temperature. The cells were washed at least 3 times with 2 mL of PBS for 5 min. The nucleic staining with 13 µL of DAPI on each slide was completed. Cells were covered with a coverslip carefully without air bubbles. The slide dried horizontally overnight in a dark place that had airflow. The cells were photographed and video recorded by using Nikon Instruments A1 Confocal Laser Microscope Series. […]

A short description of data set [3]: Dynamic light scattering. Format: physicochemical. The note with it: DLS, 10 µM, 25 °C. Here is the method:
The samples were prepared in 10 µM concentration and were incubated for approximately 2 h after thawing from a freezer (0 to −18 °C). Samples were analyzed by dynamic light scattering (DLS) for particle sizes and the polydispersity index (PI). The data were acquired by using a Zetasizer Nano ZS (Malvern, Worcestershire, UK), which has a 0.3 nm to 10 µm particle size range and was equipped with a laser beam (λ = 633 nm; 4 mW) and a scattered light detector positioned at an angle of 173° (noninvasive backscatter) in order to unmask scattered light signals of low intensity originated by the smaller particles. The analytical model was based on protein analysis. The sensitivity of the device is reported to be at 0.1 mg/mL (lysozyme). The refractive index and absorption were set at 1.450 and 0.001 for the material. The refractive index, viscosity, and temperature were set at 1.33, 0.8872, and 25 °C for dispersant. Particle sizes and PI measurements were made in disposable cuvettes (ZEN0040) at 25 °C and variable runs per measurement.

As for `N=C(N)NCCC[C@@H]1NC(=O)[C@H](C(c2ccccc2)c2ccccc2)NC(=O)[C@H](CCCNC(=N)N)NC(=O)[C@H](C(c2ccccc2)c2ccccc2)NC(=O)[C@H](CCCNC(=N)N)NC(=O)[C@H](C(c2ccccc2)c2ccccc2)NC(=O)[C@H](CCCNC(=N)N)NC(=O)[C@H](C(c2ccccc2)c2ccccc2)NC(=O)[C@H](CCCNC(=N)N)NC(=O)[C@H](C(c2ccccc2)c2ccccc2)NC1=O` [[DipR]5] (cyclo([Dip]R[Dip]R[Dip]R[Dip]R[Dip]R)), in data set [1], the “reduction of cell proliferation” value amounted to 56%. Besides, in data set [2], the “localization of F’-GpYEEI delivered by the peptide” value was “mostly localized in the cytosol”. Moreover, in data set [3], the Z average size was 200.6 nm and the “polydispersity index (PI)” value came out at 0.359.
